From US9958453B2, “Biological sensing method for separating biomolecule” (priority 2015, dated 2018)

How the values were obtained:
Streptococcus mutans = assay: Field-effect transistor biological sensing device, comparative example Streptococcus mutans; type: binding; details: FIG. 4
Experimental: Furthermore, the present experimental example applied Streptococcus mutans as a comparative example using the abovementioned biological sensing device 300 and detecting method. The field-effect transistor modified with the amino acid sequence including the sequence shown in SEC) ID NO: 1 was contact to broths of Streptococcus mutans with different concentrations, and the potential difference of the surface of the field-effect transistor modified was measured.
FIG. 4 is a potential difference-bacterial concentration diagram of a comparative example for a detecting experiment, which the bacterial concentration is represented by the number of colonies per mL of the broth. […] Therefore, Streptococcus […] is not recognized by and bound to the amino acid sequence of the biological sensing device of the present invention.

Streptococcus pneumoniae = assay: Field-effect transistor biological sensing device, detecting of Streptococcus pneumoniae; type: binding, Streptococcus pneumoniae ATCC 49136; details: amino acid sequence modified onto field-effect transistor; broths of Streptococcus pneumoniae with different concentrations; FIG. 3
Text: UlaG protein is expressed in the cell wall of Streptococcus pneumoniae. The following experimental example used the biological sensing device of the present invention to detect whether the sample included Streptococcus pneumoniae, and the detecting method included the following steps: • 1. The amino acid sequence including the sequence shown in SEQ ID NO: 1 was largely expressed by Escherichia coli. • 2. The amino acid sequence in step 1 was purified, and then modified onto a surface of a field-effect transistor. • 3. The field-effect transistor modified with the amino acid sequence in step 2 was contact to broths of Streptococcus pneumoniae with different concentrations, and the potential difference of the surface of the field-effect transistor modified was measured. The strain of Streptococcus pneumoniae used in this experimental example was ATCC 49136.
FIG. 2 is a schematic view of a biological sensing device 300 according to an embodiment of the present invention detecting a biomolecule 400. […]
FIG. 3 is a potential difference-bacterial concentration diagram of an embodiment of the present invention for the detecting experiment, which the bacterial concentration is represented by the number of colonies per milliliter (mL) of the broth. […] The Streptococcus pneumoniae can be detected by the change in the surface potential.

UlaG protein = assay: Phage display peptide screening against UlaG protein on ELISA plate; type: binding; details: UlaG protein expressed by Escherichia coli, purified, modified onto ELISA plate
Text: The screening method of an amino acid according to an embodiment of the present invention included the following steps: • 1. UlaG protein was largely expressed by Escherichia coli • 2. The UlaG protein in step 1 was purified, and then modified onto an enzyme-linked immunosorbent assay (ELISA) plate. • 3. Phage display peptide system was used to perform the screening. The phage display peptide system used bacteriophages with various peptide segments to contact the UlaG protein. After a process of repeated binding, washing, eluting, amplifying, and re-binding, the bacteriophage that can bind to the UlaG protein was selected. • 4. The selected bacteriophage in step 3 was amplified and sequenced by polymerase chain reaction (PCR). The amino acid sequence that can bind to the UlaG protein was then obtained.
Therefore, an amino acid sequence including the sequence shown in SEQ ID NO: 1 or SEQ ID NO: 2 can be used in the recognition of the UlaG protein.

| Substance | potential difference of the surface of the field-effect transistor vs bacterial concentration (Streptococcus mutans; amino acid sequence modified onto field-effect transistor, broths of Streptococcus mutans with different concentrations) | reaction of the amino acid sequence with Streptococcus mutans (Streptococcus mutans; field-effect transistor device) | potential difference of the surface of the field-effect transistor vs bacterial concentration (Streptococcus pneumoniae) | binding affinity to the UlaG protein (UlaG protein) |
| --- | --- | --- | --- | --- |
| SEQ ID NO: 1: short sequence of 7 amino acids, selected by phage display, that binds the UlaG protein; used on the field-effect transistor (ENIMPVL; amino acid sequence bound to UlaG protein) | did not change accordingly with the increase of the bacterial concentration | does not react | increased with the increase of the bacterial concentration | high binding affinities |
| SEQ ID NO: 2: short sequence of 7 amino acids, selected by phage display, that binds the UlaG protein (ERIMPVL; amino acid sequence bound to UlaG protein) | – | – | – | high binding affinities |
